Data reported in patent US5696108A, “Protein kinase C inhibitors” (Eli Lilly and Company, priority 1996, dated 1997).
Where a name gives a salt, the structure may show the parent alone.

Key:
Details in all cases: Table 1
PKC-β1 = PKC-β1 (Homo sapiens, UniProt P05771); experiment: PKC Enzyme Assay, beta-1 isozyme; type: biochemical
Method: (§1) PKC enzymes=alpha, beta I, beta II, gamma, delta, epsilon, eta and zeta.
(§2) Assay components in a total volume of 250 μL are as follows:
(§3) For all the enzymes either histone type HL (Worthington) or myelin basic protein is used as substrate. The assay is started by addition of protein kinase C enzyme incubated at 30° C. for 10 minutes and stopped by adding 0.5 mL of cold trichloroacetic acid (Amresco) followed by 100 μL of 1 mg/mL bovine serum albumin (Sigma, St. Louis, Mo.). The precipitate is collected by vacuum filtration on glass fiber filters employing a TOMTEC™ filtration system and quantified by counting in a beta scintillation counter.

casein protein kinase II = biological target: T1, casein protein kinase II (Rattus norvegicus, UniProt P19139); experiment: Casein Protein Kinase II Assay (CK-II); type: biochemical
T1 construct: isolated from rat brain homogenate; from tissue; host or cells: rat brain homogenate
Method: Casein Protein Kinase II Assay (CK-II)
The Casein Protein Kinase II Assay is described in Neurochem. […] The assay components are in a total volume of 250 μL: 20 mM Tris-HCl, pH 7.5, 5 mM sodium fluoride, 50 mg/mL Casein (Sigma, St. Louis, Mo.), 10 mM magnesium chloride (Sigma, St. Louis, Mo.), 10 μL DMSO or DMSO/inhibitor and 30 μm (gamma-32P) ATP (DuPont). Initiation of the reaction is performed by addition of casein protein kinase II (isolated from rat brain homogenate), incubated at room temperature for 10 minutes and stopped by the addition of 0.5 mL ice cold Trichloroacetic acid (Amresco) followed by 100 μL of 1 mg/mL bovine serum albumin (Sigma, St. Louis, Mo.). The precipitate is collected by vacuum filtration on glass fiber filters and quantified by counting in a beta scintillation counter.
Assay components in order of addition
10 μL or DMSO or DMSO/inhibitor
25 μL of AT32P in 300 μM magnesium chloride
40 μL of enzyme (undiluted)
Buffer prepared as follows:
(Final volume=3.5 mL: amount of 20 assays)

PKC-α = PKC-α (Homo sapiens, UniProt P17252); experiment: PKC Enzyme Assay, alpha isozyme; type: biochemical
Method: as §1, §2, §3

[1] = biological target: T2, cAMP-dependent kinase catalytic subunit (Bos taurus, UniProt P00517); experiment: cAMP-Dependent protein Kinase Catalytic Subunit Assay; type: biochemical, bovine
T2 construct: purchased Sigma, St. Louis, Mo; host or cells: bovine heart
Method: cAMP-Dependent protein Kinase Catalytic Subunit Assay (PEA) The Assay components are in a total volume of 250 μL: 20 mM HEPES (Sigma, St. Louis, Mo.) buffer pH 7.5, 200 μg/mL histone type HL (Worthington), 10 mM magnesium chloride (Sigma, St. […] The reaction is initiated by addition of bovine heart cAMP-dependent kinase catalytic subunit (Sigma, St. Louis, Mo.), incubated to 30° C. for 10 minutes and stopped by adding 0.5 mL ice cold Trichloroacetic acid (Amresco) followed by 100 μL of 1 mg/mL bovine serum albumin (Sigma). The precipitate is collected by vacuum filtrated on glass fiber filters employing a TOMTEC™ and quantified by counting in a beta scintillation counter. This assay is done identical to the protein kinase C (PKC) enzyme assay except that no phospholipids or diacylglycerol are employed in the assay and the histone substrate is specific for the cAMP-dependent catalytic subunit enzyme.

[2] = biological target: calcium calmodulin dependent protein kinase; experiment: Calcium Calmodulin Dependent Protein Kinase Assay (CAM); type: biochemical, rat
Method: Calcium Calmodulin Dependent Protein Kinase Assay (CAM)
The reaction is initiated by the addition of calcium calmodulin dependent protein kinase (isolated from rat brain homogenate), incubated at room temperature for 10 minutes and stopped by adding 0.5 mL ice cold trichloroacetic acid (Amresco) followed by 100 μL of 1 mg/mL bovine serum albumin (Sigma, St. Louis, Mo.). The precipitate is collected by vacuum filtration on glass fiber filters and quantified by counting in a beta scintillation counter.
25 μL calmodulin (250 μg/mL)
10 μL DMSO or DMSO/inhibitor

src = biological target: T3, src (Homo sapiens, UniProt P12931); experiment: Protein Tyrosine Kinase Assay (src); type: biochemical
T3 construct: purchased Onogene Science, Inc. PK02 and PK03
Method: Protein Tyrosine Kinase Assay (src)
The Assay components are the following:
4 μL DMSO or DMSO/inhibitor

PKC-β2 = PKC-β2 (Homo sapiens, UniProt P05771); experiment: PKC Enzyme Assay, beta-2 isozyme; type: biochemical
Method: as §1, §2, §3

PKC-β2, sequence (P05771 1-673 isoform P05771-2): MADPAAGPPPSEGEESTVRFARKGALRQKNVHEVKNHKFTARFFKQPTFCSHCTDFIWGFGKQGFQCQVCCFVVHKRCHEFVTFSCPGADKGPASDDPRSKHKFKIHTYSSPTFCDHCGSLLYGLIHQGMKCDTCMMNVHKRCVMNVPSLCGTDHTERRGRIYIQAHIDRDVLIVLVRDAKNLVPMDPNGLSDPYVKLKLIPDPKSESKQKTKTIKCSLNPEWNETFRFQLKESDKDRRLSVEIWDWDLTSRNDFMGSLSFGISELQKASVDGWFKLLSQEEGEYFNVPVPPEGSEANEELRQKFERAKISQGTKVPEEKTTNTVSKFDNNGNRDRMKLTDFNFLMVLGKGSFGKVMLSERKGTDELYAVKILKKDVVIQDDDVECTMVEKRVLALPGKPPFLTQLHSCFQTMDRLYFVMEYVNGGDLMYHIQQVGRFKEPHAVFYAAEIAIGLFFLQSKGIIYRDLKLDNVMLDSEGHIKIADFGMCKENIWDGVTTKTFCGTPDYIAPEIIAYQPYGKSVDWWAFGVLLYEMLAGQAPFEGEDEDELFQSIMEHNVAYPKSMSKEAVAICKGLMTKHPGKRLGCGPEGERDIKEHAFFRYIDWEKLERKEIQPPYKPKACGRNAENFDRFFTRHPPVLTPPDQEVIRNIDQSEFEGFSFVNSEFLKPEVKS
T1 sequence (P19139 whole entry): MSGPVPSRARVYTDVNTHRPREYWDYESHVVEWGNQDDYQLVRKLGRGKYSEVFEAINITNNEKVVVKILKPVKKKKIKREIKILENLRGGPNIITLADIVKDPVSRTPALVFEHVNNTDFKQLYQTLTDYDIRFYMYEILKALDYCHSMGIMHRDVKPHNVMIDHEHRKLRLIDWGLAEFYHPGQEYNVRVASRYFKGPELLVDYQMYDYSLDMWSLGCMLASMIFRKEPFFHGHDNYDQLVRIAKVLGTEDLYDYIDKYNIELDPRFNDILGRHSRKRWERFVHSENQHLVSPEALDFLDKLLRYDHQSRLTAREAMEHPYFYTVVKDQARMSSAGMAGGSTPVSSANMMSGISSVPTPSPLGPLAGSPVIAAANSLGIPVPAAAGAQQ
T1 sequence (P67874 2-215 partner limits assumed): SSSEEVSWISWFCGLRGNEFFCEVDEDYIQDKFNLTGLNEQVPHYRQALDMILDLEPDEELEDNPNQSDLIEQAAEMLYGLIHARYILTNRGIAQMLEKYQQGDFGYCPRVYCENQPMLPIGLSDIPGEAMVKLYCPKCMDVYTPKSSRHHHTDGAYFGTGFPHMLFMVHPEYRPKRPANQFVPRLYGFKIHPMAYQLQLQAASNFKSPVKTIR
T3 sequence (P12931 whole entry, species assumed): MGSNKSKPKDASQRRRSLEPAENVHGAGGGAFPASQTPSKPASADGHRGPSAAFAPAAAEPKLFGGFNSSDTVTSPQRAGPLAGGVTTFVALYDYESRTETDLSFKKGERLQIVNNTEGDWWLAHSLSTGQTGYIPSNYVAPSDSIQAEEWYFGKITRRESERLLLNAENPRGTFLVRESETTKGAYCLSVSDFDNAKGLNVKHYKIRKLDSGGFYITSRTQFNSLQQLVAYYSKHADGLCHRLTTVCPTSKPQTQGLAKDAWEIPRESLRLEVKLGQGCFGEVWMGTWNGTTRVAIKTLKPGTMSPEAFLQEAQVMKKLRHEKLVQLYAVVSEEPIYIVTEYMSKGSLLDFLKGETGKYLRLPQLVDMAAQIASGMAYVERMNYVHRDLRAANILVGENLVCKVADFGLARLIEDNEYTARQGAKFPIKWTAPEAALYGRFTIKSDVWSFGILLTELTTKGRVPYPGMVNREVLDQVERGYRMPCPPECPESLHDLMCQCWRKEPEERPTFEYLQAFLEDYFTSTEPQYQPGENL
PKC-β1, sequence (P05771 whole entry): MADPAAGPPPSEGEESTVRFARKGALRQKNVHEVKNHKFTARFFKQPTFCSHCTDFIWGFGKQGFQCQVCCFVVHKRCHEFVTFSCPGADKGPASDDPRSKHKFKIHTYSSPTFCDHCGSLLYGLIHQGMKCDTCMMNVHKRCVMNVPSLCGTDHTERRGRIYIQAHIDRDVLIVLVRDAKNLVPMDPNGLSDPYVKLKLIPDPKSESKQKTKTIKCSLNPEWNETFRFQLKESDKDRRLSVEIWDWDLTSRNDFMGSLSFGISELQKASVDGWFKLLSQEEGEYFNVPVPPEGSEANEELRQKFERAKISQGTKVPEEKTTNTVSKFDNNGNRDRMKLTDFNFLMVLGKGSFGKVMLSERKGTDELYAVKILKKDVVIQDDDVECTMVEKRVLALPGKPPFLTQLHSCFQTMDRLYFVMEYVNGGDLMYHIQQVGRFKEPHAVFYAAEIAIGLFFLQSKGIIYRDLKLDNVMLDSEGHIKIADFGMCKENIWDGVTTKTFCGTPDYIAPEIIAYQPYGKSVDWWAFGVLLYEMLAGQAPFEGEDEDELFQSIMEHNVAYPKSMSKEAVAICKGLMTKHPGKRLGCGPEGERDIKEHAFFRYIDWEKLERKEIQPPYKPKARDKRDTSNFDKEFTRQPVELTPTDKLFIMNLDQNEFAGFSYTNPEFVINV

Structure (SMILES) | IC50 (PKC-β1) [nM] | IC50 (casein protein kinase II) [nM] | IC50 (PKC-α) [nM] | IC50 [1] [nM] | IC50 [2] [nM] | IC50 (src) [nM] | IC50 (PKC-β2) [nM]
O=C1NC(=O)C2=C1c1cn(c3ccccc13)CCCC(COCc1ccccc1)CCn1cc2c2ccccc21 (racemic) [Example 30, (±)-3,4-[(N,N'-1,1'-(3"-(benzyloxymethylene)hexane)-bis-(3,3'-indolyl)]-1H-pyrrole-2,5-dione] | 1000 | > 10000 | > 100000 | > 100000 | > 10000 | > 100000 | 2000
O=C1NC(=O)C2=C1c1cn(c3ccccc13)CCCOC(CO)CCn1cc2c2ccccc21 (stereo not shown) [Example 2, 3,4-[(N,N'-1,1')-((3"-propoxy)-3'"(O)-4'"(hydroxy)butane)-bis-(3,3'-indolyl)]-1(H)-pyrrole-2,5-dione] | 400 | > 100000 | 4000 | > 100000 | > 100000 | > 100000 | 200
NCC1CCn2cc(c3ccccc32)C2=C(C(=O)NC2=O)c2cn(c3ccccc23)CCO1 (stereo not shown) [Example 4, 3,4-[(N,N'-1,1'-((2'"-ethoxy)-3'"(O)-4'"-(amino)-butane)-bis-(3,3'-indolyl)]-1(H)-pyrrole-2,5-dione trifluoroacetate salt] | 20 | > 100000 | 300 |  | 3000 | 37000 | 8
NC[C@H]1CCn2cc(c3ccccc32)C2=C(C(=O)NC2=O)c2cn(c3ccccc23)CCO1 [Example 4r] | 5 | > 100000 | 300 | > 100000 | 690 | 33000 | 21
NC[C@@H]1CCn2cc(c3ccccc32)C2=C(C(=O)NC2=O)c2cn(c3ccccc23)CCO1 [Example 4s] | 48 | > 100000 | 1300 | > 100000 | 2500 | 63000 | 33
NCC1CCn2cc(c3ccccc32)C2=C(C(=O)NC2=O)c2cn(c3ccccc23)CCCO1 (stereo not shown) [Example 9] | 350 | > 100000 | 3000 | > 100000 | 26000 | 58000 | 160
CN(C)CC1CCn2cc(c3ccccc32)C2=C(C(=O)NC2=O)c2cn(c3ccccc23)CCCO1 (stereo not shown) [Example 11] | 300 | > 100000 | 5000 | > 100000 | 20000 | > 100000 | 100
CC(=O)NC[C@H]1CCn2cc(c3ccccc32)C2=C(C(=O)NC2=O)c2cn(c3ccccc23)CCO1 [Example 19r] | 32 | > 100000 | 480 | > 100000 | 2200 | > 100000 | 30
O=C1NC(=O)C2=C1c1cn(c3ccccc13)CCO[C@@H](CN1CCCC1)CCn1cc2c2ccccc21 [Example 20r] |  | > 100000 | 890 | > 100000 | 7300 | 74000 | 
O=C1NC(=O)C2=C1c1cn(c3ccccc13)CCO[C@H](CN1CCCC1)CCn1cc2c2ccccc21 [Example 20s] |  | > 100000 | 3000 | > 100000 | 6700 | 16000 | 
O=C1NC(=O)C2=C1c1cn(c3ccccc13)CCO[C@@H](CNS(=O)(=O)c1ccccc1)CCn1cc2c2ccccc21 [Example 21r] | 180 | > 100000 | 68000 | > 100000 |  | > 100000 | 50
O=C1NC(=O)C2=C1c1cn(c3ccccc13)CCCCCCn1cc2c2ccccc21 [Example 28, 3,4-[(N,N'-1,1'-hexane)-bis-(3,3'-indolyl)]-1H-pyrrole-2,5-dione] | 70 | > 100000 | 1000 |  | 2000 | > 100000 | 80
O=C1NC(=O)C2=C1c1cn(c3ccccc13)CCCC(CO)CCn1cc2c2ccccc21 (stereo not shown) [Example 31, 3,4-[(N,N'-1,1'-(3"-(hydroxy)methylene)hexane)-bis-(3,3'-indolyl)]-1H-pyrrole-2,5-dione] | 20 | > 100000 | 300 | > 100000 | 470 | > 100000 | 30
NCC1CCCn2cc(c3ccccc32)C2=C(C(=O)NC2=O)c2cn(c3ccccc23)CC1 (stereo not shown) [Example 32, 3,4-[(N,N'-1,1'-(3"-aminomethylene)-hexane)-bis-(3,3'-indolyl)]-1H-pyrrole-2,5-dione] | 10 | > 100000 | 100 | > 100000 | 900 | 72000 | 8
O=C1NC(=O)C2=C1c1cn(c3ccccc13)CCCC(CNCc1ccccc1)CCn1cc2c2ccccc21 (stereo not shown) [Example 34, 3,4-[(N,N'-1,1'-(3"-(N-benzylamino)methylene)-hexane)-bis-(3,3'-indolyl)]-1H-pyrrole-2,5-dione trifluoroacetate salt] | 100 | > 100000 | 1000 |  | 4000 | > 100000 | 100
O=C1NC(=O)C2=C1c1cn(c3ccccc13)CCCC(CN(Cc1ccccc1)Cc1ccccc1)CCn1cc2c2ccccc21 (stereo not shown) [Example 35, 3,4-[(N,N'-1,1 '-(3"-(N,N-dibenzylamino)methylene)-hexane)-bis-(3,3'-indolyl)]-1H-pyrrole-2,5-dione trifluoroacetate salt] | 3000 | > 100000 | 9000 |  | 82000 | > 100000 | 2000
O=C1NC(=O)C2=C1c1cn(c3ccccc13)CCC[C@@H](CN1CCCC1)CCn1cc2c2ccccc21 [Example 36r, (R)-3,4-[(N,N'-1,1'-(3"-(N-pyrrolidino)methylene)-hexane)-bis-(3,3"-indolyl)]-1H-pyrrole-2,5-dione hydrochloride salt] | 5 | > 100000 | 450 | > 100000 | 7100 | 61000 | 14
COCC1CCCn2cc(c3ccccc32)C2=C(C(=O)NC2=O)c2cn(c3ccccc23)CC1 (stereo not shown) [Example 37, 3,4-[(N,N'-1,1'-(3"-methoxymethylene)-hexane)-bis-(3,3'-indolyl)]-1H-pyrrole-2,5-dione] | 50 | > 100000 | 700 | > 100000 | 5000 | > 100000 | 40
CN(C)CC1CCCn2cc(c3ccccc32)C2=C(C(=O)NC2=O)c2cn(c3ccccc23)CC1 (stereo not shown) [Example 40] |  | > 100000 | 600 | > 100000 | 5000 | 4400 | 
CN(C)C[C@@H]1CCCn2cc(c3ccccc32)C2=C(C(=O)NC2=O)c2cn(c3ccccc23)CC1 [Example 40r, (R)-3,4-[(N,N'-1,1'-(3"-(N,N-dimethylamino)methylene)-hexane)-bis-(3,3'-indolyl)]-1H-pyrrole-2,5-dione hydrochloride salt] |  | > 100000 | 300 | > 100000 | 8000 | 71000 | 
O=C1NC(=O)C2=C1c1cn(c3ccccc13)CCCCCn1cc2c2ccccc21 [Example 43] | 40 | > 100000 | 400 |  | 600 | > 100000 | 30
